# Data published in patent publication US5877166A, “Enantiomerically pure 2-aminopurine phosphonate nucleotide analogs as antiviral agents” (priority 1997, dated 1999).
# Where two headings read alike, the source gives them in different places.
# Legend:
# murine cytomegalovirus = assay: Activity against a murine cytomegalovirus infection in normal BALB/c mice; assay type: in vivo
# Protocol: Activities of 1-5 and 1-6
# Against a murine cytomegalovirus infection
# ^a Treatments were given once daily for 5 days starting 24 hours afte
# [1] = Toxicity to uninfected BALB/c mice; assay type: in vivo; details: mouse, in vivo, once daily for 15 days, read-out: Survivors (%)
# Excerpt: (§1) Toxicity of 1-5 to uninfected BALB/c mice.
# (§2) ^a Treatments were given once daily for 15 days.
# (§3) ^b Difference in weight (in grams) between day 0 and day 16.
# uninfected BALB/c mice = assay: Toxicity to uninfected BALB/c mice; assay type: in vivo; details: for Kidney Damage (%) / Survivors/Total: once daily for 15 days; for Weight Change: between day 0 and day 16
# Excerpt: as §1, §2, §3
# HCMV, Strain D-16 = assay: Antiviral activity (plaque reduction) vs. HCMV, Strain D-16 in MRC-5 cells; assay type: cell-based, human cytomegalovirus (HCMV); details: for TI (therapeutic index, ratio of the median cytotoxic dose to the median effective dose): CD50/ED50, 4320 min; for inhibition at 1 µg/mL / inhibition at 3.2 µg/mL / inhibition at 10 µg/mL / inhibition at 32 µg/mL / inhibition at 100 µg/mL / inhibition at 316 µg/mL: Human betaherpesvirus 5, MRC5, 72 h, read-out: % Reduction (plaques); for EC50: Human betaherpesvirus 5, MRC5, 72 hours, MRC-5 cells, read-out: ED50 (median effective antiviral dose)
# in vitro = assay type: cell-based; details: human, mrc-5 cells
# Protocol: The herpes strain employed was Strain D-16 of HCMV. Continuous passaged MRC-5 cells obtained from the American Type Culture Collection (Bethesda, Md.) were used for testing, with growth medium consisting of Minimum Essential Medium (MEM) supplemented with 0.1% NaHCO3 and […] gentamicin.
# To a 96-well microtiter plate containing an established 24-hour monolayer of cells from which the medium had been decanted was added 0.1 mL of varying (one-half log10) concentration of test compound, which incubated on the cell 15 minutes, after which 0.1 mL of virus in a concentration of 320 cell culture 50% infectious doses (CCID50)/0.1 mL was added. The plate was covered with plastic wrap and incubated at 37° C. The cells were examined microscopically after 72 hours. The ED50 (the median effective antiviral dose, i.e., that dose which is effective in 50% of the cells), CD50 (the median cytotoxic dose, i.e., that dose which produces cytotoxicity in 50% of the cells), and TI (the therapeutic index, meaning the ratio of the median cytotoxic dose to the median effective dose) were evaluated.
# [2] = 5 mg/kg/day, once daily for 5 days
# [3] = 10 mg/kg/day, once daily for 5 days
# [4] = 20 mg/kg/day, once daily for 5 days
# [5] = 40 mg/kg/day, once daily for 5 days
# [6] = 40 mg/kg/day, once daily for 5 days starting 24 hours after virus challenge
smiles,measurement,setting,value
"Nc1ncc2ncn(CO[C@@H](CO)CCP(=O)(O)O)c2n1 [Compound 1-5, 2-Amino-9-[(R(-)-1-hydroxymethyl-3-phosphono)-1-propyloxymethyl]-9H-purine]",Mean Day to Death,murine cytomegalovirus; [2],9.6 ± 4.6 days
same,Survivors (%),murine cytomegalovirus; [2],50%
same,Survivors/Total,murine cytomegalovirus; [2],5/10
same,Mean Day to Death,murine cytomegalovirus; [3],10.0 ± 3.6 days
same,Survivors (%),murine cytomegalovirus; [3],70%
same,Survivors/Total,murine cytomegalovirus; [3],7/10
same,Mean Day to Death,murine cytomegalovirus; [4],11.5 ± 0.7 days
same,Survivors (%),murine cytomegalovirus; [4],80%
same,Survivors/Total,murine cytomegalovirus; [4],8/10
same,Mean Day to Death,murine cytomegalovirus; [5],> 21 days
same,Survivors (%),murine cytomegalovirus; [5],100%
same,Survivors/Total,murine cytomegalovirus; [6],10/10
same,survival,[1]; 100 mg/kg/day,100%
same,survival,[1]; 200 mg/kg/day,100%
same,survival,[1]; 400 mg/kg/day,100%
same,survival,[1]; 600 mg/kg/day,100%
same,Kidney Damage (%),uninfected BALB/c mice; 100 mg/kg/day,0%
same,Survivors/Total,uninfected BALB/c mice; 100 mg/kg/day,3/3
same,Weight Change,uninfected BALB/c mice; 100 mg/kg/day,+7.0 grams
same,Kidney Damage (%),uninfected BALB/c mice; 200 mg/kg/day,0%
same,Survivors/Total,uninfected BALB/c mice; 200 mg/kg/day,3/3
same,Weight Change,uninfected BALB/c mice; 200 mg/kg/day,+7.8 grams
same,Kidney Damage (%),uninfected BALB/c mice; 400 mg/kg/day,0%
same,Survivors/Total,uninfected BALB/c mice; 400 mg/kg/day,3/3
same,Weight Change,uninfected BALB/c mice; 400 mg/kg/day,+6.6 grams
same,Kidney Damage (%),uninfected BALB/c mice; 600 mg/kg/day,0%
same,Survivors/Total,uninfected BALB/c mice; 600 mg/kg/day,3/3
same,Weight Change,uninfected BALB/c mice; 600 mg/kg/day,+4.5 grams
Nc1ncc2ncn(CO[C@@H]3CCP(=O)(O)OC3)c2n1 [Compound 1-6],Number of Plaques,"HCMV, Strain D-16; 1 μg/mL",51.0
same,Number of Plaques,"HCMV, Strain D-16; 3.2 μg/mL",56.0
same,Number of Plaques,"HCMV, Strain D-16; 10 μg/mL",33.0
same,Number of Plaques,"HCMV, Strain D-16; 32 μg/mL",6.5
same,Number of Plaques,"HCMV, Strain D-16; 100 μg/mL",0.0
same,Number of Plaques,"HCMV, Strain D-16; 316 μg/mL",0.0
same,% Reduction (given as toxic),"HCMV, Strain D-16; 1000 μg/mL",toxic
same,Number of Plaques (given as toxic),"HCMV, Strain D-16; 1000 μg/mL",toxic
same,"TI (therapeutic index, ratio of the median cytotoxic dose to the median effective dose)","HCMV, Strain D-16",73
same,inhibition at 1 µg/mL,"HCMV, Strain D-16; 1 μg/mL",37%
same,inhibition at 3.2 µg/mL,"HCMV, Strain D-16; 3.2 μg/mL",31%
same,inhibition at 10 µg/mL,"HCMV, Strain D-16; 10 μg/mL",59%
same,inhibition at 32 µg/mL,"HCMV, Strain D-16; 32 μg/mL",92%
same,inhibition at 100 µg/mL,"HCMV, Strain D-16; 100 μg/mL",100%
same,inhibition at 316 µg/mL,"HCMV, Strain D-16; 316 μg/mL",100%
same,EC50,"HCMV, Strain D-16",6.7 µg/mL
same,CC50 at 72 h,in vitro,487 µg/mL
same,Mean Day to Death,murine cytomegalovirus; [2],6.4 ± 0.5 days
same,Survivors (%),murine cytomegalovirus; [2],0%
same,Survivors/Total,murine cytomegalovirus; [2],0/10
same,Mean Day to Death,murine cytomegalovirus; [3],7.4 ± 2.0 days
same,Survivors (%),murine cytomegalovirus; [3],0%
same,Survivors/Total,murine cytomegalovirus; [3],0/10
same,Mean Day to Death,murine cytomegalovirus; [4],6.1 ± 0.4 days
same,Survivors (%),murine cytomegalovirus; [4],30%
same,Survivors/Total,murine cytomegalovirus; [4],3/10
same,Mean Day to Death,murine cytomegalovirus; [5],8.3 ± 4.9 days
same,Survivors (%),murine cytomegalovirus; [5],40%
same,Survivors/Total,murine cytomegalovirus; [6],4/10
"Nc1nc2c(ncn2COC(CO)CO)c(=O)[nH]1 [DHPG, 9-[(1,3dihydroxy-2-propoxy)methyl] guanine, reference compound]",Number of Plaques,"HCMV, Strain D-16; 1 μg/mL",69.0
same,Number of Plaques,"HCMV, Strain D-16; 3.2 μg/mL",57.0
same,Number of Plaques,"HCMV, Strain D-16; 10 μg/mL",24.5
same,Number of Plaques,"HCMV, Strain D-16; 32 μg/mL",2.0
same,Number of Plaques,"HCMV, Strain D-16; 100 μg/mL",0.0
same,Number of Plaques,"HCMV, Strain D-16; 316 μg/mL",0.0
same,"TI (therapeutic index, ratio of the median cytotoxic dose to the median effective dose)","HCMV, Strain D-16",> 44
same,inhibition at 1 µg/mL,"HCMV, Strain D-16; 1 μg/mL",0%
same,inhibition at 3.2 µg/mL,"HCMV, Strain D-16; 3.2 μg/mL",0%
same,inhibition at 10 µg/mL,"HCMV, Strain D-16; 10 μg/mL",70%
same,inhibition at 32 µg/mL,"HCMV, Strain D-16; 32 μg/mL",98%
same,inhibition at 100 µg/mL,"HCMV, Strain D-16; 100 μg/mL",100%
same,inhibition at 316 µg/mL,"HCMV, Strain D-16; 316 μg/mL",100%
same,EC50,"HCMV, Strain D-16",7.2 µg/mL
same,CC50 at 72 h,in vitro,> 316 µg/mL
